# Counter-ions that a name gives are not always drawn.
# Test system: not given
# Assay: not given
# Conditions: not given
row,melting point [°C],Molecule
1,243 to 244,"O=C(CCCN1CCC(NC(=O)c2ccccc2)CC1)c1ccc(Cl)cc1 (as salt: HCl) [Compound 7, 1-[3-(4-chlorobenzoyl)propyl]-4-benzamidopiperidine]"

# Test system: human prostate tissue
# Assay: Inhibition of phenylephrine-induced contraction of human prostate tissue strips
# Conditions: dose-ratio method
# Description: Methods: Prostatic adenomas were obtained at the time of surgery from patients with symptomatic BPH. These were cut into longitudinal strips of 15 mm long and 2-4 mm wide, and suspended in 5 ml organ baths containing Krebs buffer (pH 7.4). The baths were maintained at 37° C. and continuously oxygenated with 5% CO2 and 95% O2. Isometric tension was measured with a Grass Instrument FT03 force transducer interfaced with a computer.
# Tissue strips were contracted with varying concentrations of phenylephrine after incubating for 20 minutes in the absence and presence of at least three different concentrations of antagonist. Dose-response curves for phenylephrine were constructed, and the antagonist potency (pA2) was estimated by the dose-ratio method. […] This control was necessary to account for losses of antagonist due to adsorption to the tissue bath and/or metabolism during the time the antagonists were equilibrated with the prostate tissue.
row,Molecule,Human Prostate (pA)
1,O=C(NC1CCN(CCc2c[nH]c3ccccc23)CC1)c1ccccc1 [Indoramin],7.86
2,"O=C(CCCN1CCC(NC(=O)c2ccccc2)CC1)c1ccccc1 [Compound 9, 1-(3-benzoylpropyl)-4-benzamidopiperidine]",7.41
3,"COc1ccccc1N1CCN(CCCNc2c(C)c(=O)n(C)c(=O)n2C)CC1 [5-Methyl Urapidil, 5-methylurapidil]",8.38
4,"O=C(CCCN1CCC(NC(=O)c2ccccc2)CC1)c1ccc(Cl)cc1 [Compound 7, 1-[3-(4-chlorobenzoyl)propyl]-4-benzamidopiperidine]",7.63
5,"C=Cc1sc2ccc(Cl)c3c2c1CN(C)CC3 [SKF-104856, 7-Chloro-2-ethenyl-3,4,5,6-tetrahdyro-4-methylthieno[4,3,2-ef][3]benzazepine]",7.66
6,"COc1cc2nc(N3CCN(C(=O)C4CCCO4)CC3)nc(N)c2cc1OC (stereo not shown) [Terazosin, 2[4-(Tetrahydro-2-furoyl)piperazinyl]-4-amino-6,7-dimethoxyquinazoline hydrochloride]",7.30
7,"4-fluoro-4-(8-fluoro-1,3,4,5-tetrahydro-2H-pyrido[4,3-b]indol-2-yl)butyrophenone hydrochloride [Compound A-30360]",8.72
8,COc1cc2nc(N3CCN(C(=O)c4ccco4)CC3)nc(N)c2cc1OC [Prazosin],9.08

# Target: T1, α1c receptor (Bos taurus, UniProt P18130)
# T1 sequence (P18130 1-466): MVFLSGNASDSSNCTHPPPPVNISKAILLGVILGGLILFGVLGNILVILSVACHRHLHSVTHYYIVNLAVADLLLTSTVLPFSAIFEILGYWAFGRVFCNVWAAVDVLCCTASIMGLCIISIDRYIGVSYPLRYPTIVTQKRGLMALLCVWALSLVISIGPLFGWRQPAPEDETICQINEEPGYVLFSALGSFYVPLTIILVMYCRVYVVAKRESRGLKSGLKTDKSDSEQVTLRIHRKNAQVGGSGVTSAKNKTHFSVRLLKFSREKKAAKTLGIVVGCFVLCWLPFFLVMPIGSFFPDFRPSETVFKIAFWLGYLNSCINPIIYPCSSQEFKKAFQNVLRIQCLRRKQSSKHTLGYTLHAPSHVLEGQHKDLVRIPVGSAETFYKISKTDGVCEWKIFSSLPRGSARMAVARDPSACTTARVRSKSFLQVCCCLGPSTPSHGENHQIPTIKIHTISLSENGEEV
# Assay: not given
# Conditions: expressed α1c receptor; cited from earlier work
row,Molecule,fold higher affinity than the α1b-receptor [fold]
1,Cc1ccc(N(CC2=NCCN2)c2cccc(O)c2)cc1 [phentolamine],30

# Source: patent publication US6448011B1, “DNA encoding human alpha 1 adrenergic receptors and uses thereof” (Synaptic Pharmaceutical Corporation, priority 1992, dated 2002)
